In brackets after ≈: the same amount, converted by molar mass.
Experiments:
[1] = system: A. baumannii; assay: MIC, microbroth dilution susceptibility assay (Table 2b); assay type: cell-based; conditions: larger panel; for MIC: Acinetobacter baumannii
Experimental: (§1) Cystobactamid derivatives synthesized were tested against relevant Gram negative and positive bacteria of clinical interest. Experimental procedures used for the biological characterization of the compounds are the same as previously described in WO 2016/082934.
(§2) Bacterial strains used in susceptibility assays (minimum inhibitory concentration, MIC) were either part of our internal strain collection or purchased from the German Collection of Microorganisms and Cell Cultures (Deutsche Sammlung von Mikroorganismen und Zellkulturen, DSMZ) and the American Type Culture Collection (ATCC). The susceptible E. coli strain (WT) and fluoroquinolone-resistant mutants E. coli WT-3 and WT-III were kindly provided by Prof Dr. P. Heisig, Pharmaceutical Biology and Microbiology, University of Hamburg, Germany. The efflux-deficient strain P. aeruginosa ΔmexAB was kindly provided by Prof Dr. S. Häußler, Institute for Molecular Bacteriology, TWINCORE, Hannover, Germany. All compounds were prepared as DMSO stocks and MIC values were determined in standard microbroth dilution assays in 96-well MTPs as described in Baumann et al., Angew Chem Int Ed Engl. 2014; 53(52):14605-9. In brief, overnight cultures of bacteria were diluted in either tryptic soy broth (TSB: 1.7% peptone casein, 0.3% peptone soymeal, 0.25% glucose, 0.5% NaCl, 0.25% K2HPO4; pH 7.3; S. pneumoniae and E. faecalis) or cation-adjusted Müller-Hinton Broth (BBL™, BD; all other bacteria) and adjusted to 10^4-10^6 cfu/mL. Bacteria were grown in the presence of the derivatives in serial dilution for approx. 16 h at 30-37° C. MIC values were determined and were defined as the antibiotic concentration at which no visual growth of bacteria was observed.

[2] = system: C. freundii; assay: as above; assay type: cell-based; conditions: larger panel; for MIC: Citrobacter freundii
Experimental: as §1, §2

[3] = system: S. epidermidis; assay: as above; assay type: cell-based; conditions: larger panel; for MIC: Staphylococcus epidermidis
Experimental: as §1, §2

[4] = system: E. aerogenes; assay: as above; assay type: cell-based; conditions: larger panel; for MIC: Klebsiella aerogenes
Experimental: as §1, §2

[5] = system: E. cloacae; assay: as above; assay type: cell-based; conditions: larger panel; for MIC: Enterobacter cloacae
Experimental: as §1, §2

[6] = system: P. mirabilis; assay: as above; assay type: cell-based; conditions: larger panel; for MIC: Proteus mirabilis
Experimental: as §1, §2

[7] = system: P. vulgaris; assay: as above; assay type: cell-based; conditions: larger panel; for MIC: Proteus vulgaris
Experimental: as §1, §2

[8] = system: P. aeruginosa ESBL 2; assay: as above; assay type: cell-based; conditions: for MIC: Pseudomonas aeruginosa, ESBL2, larger panel
Experimental: as §1, §2

[9] = system: K. pneumoniae; assay: as above; assay type: cell-based; conditions: larger panel; for MIC: Klebsiella pneumoniae
Experimental: as §1, §2

[10] = system: S. marcescens; assay: as above; assay type: cell-based; conditions: larger panel; for MIC: Serratia marcescens
Experimental: as §1, §2

[11] = system: P. aeruginosa ESBL 1; assay: as above; assay type: cell-based; conditions: for MIC: Pseudomonas aeruginosa, ESBL1, larger panel
Experimental: as §1, §2

[12] = system: E. faecalis; assay: as above; assay type: cell-based; conditions: larger panel; for MIC: Enterococcus faecalis
Experimental: as §1, §2

[13] = system: E. coli WT; assay: MIC, microbroth dilution susceptibility assay; assay type: cell-based; conditions: for MIC: Escherichia coli
Summary of the method: (§3)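 Inoculum: 10^4-10^6 cfu/mL from overnight culture. Medium: cation-adjusted Müller-Hinton broth. Incubation: approx. 16 h, 30-37° C. Read-out: visual, MIC at no growth.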

[14] = system: E. coli WT-3 [gyrA(S83L,D87G)]; assay: microbe, parasite or virus in culture; assay type: cell-based; conditions: for MIC: Escherichia coli, read-out: MIC E. coli WT-3 [gyrA(S83L,D87G)]
Summary of the method: as §3

[15] = system: S. marcescens DSM-30121; assay: MIC, microbroth dilution susceptibility assay; assay type: cell-based; conditions: Serratia marcescens, DSM30121; large panel, Table 2a
Summary of the method: as §3

[16] = system: S. pneumoniae DSM-20566; assay: MIC, microbroth dilution susceptibility assay; assay type: cell-based; conditions: Streptococcus pneumoniae, DSM20566; large panel, Table 2a; TSB
Summary of the method: as §3

[17] = system: K. pneumoniae DSM-30104; assay: MIC, microbroth dilution susceptibility assay; assay type: cell-based; conditions: Klebsiella pneumoniae, DSM30104; large panel, Table 2a
Summary of the method: as §3

[18] = system: E. cloacae DSM-30054; assay: MIC, microbroth dilution susceptibility assay; assay type: cell-based; conditions: Enterobacter cloacae, DSM30054; large panel, Table 2a
Summary of the method: as §3

[19] = system: P. mirabilis DSM-2140; assay: MIC, microbroth dilution susceptibility assay; assay type: cell-based; conditions: Proteus mirabilis, DSM2140; large panel, Table 2a
Summary of the method: as §3

[20] = system: P. vulgaris DSM-2140; assay: MIC, microbroth dilution susceptibility assay; assay type: cell-based; conditions: Proteus vulgaris, DSM2140; large panel, Table 2a
Summary of the method: as §3

[21] = system: E. faecalis ATCC-29212; assay: MIC, microbroth dilution susceptibility assay; assay type: cell-based; conditions: Enterococcus faecalis, ATCC29212; large panel, Table 2a; TSB
Summary of the method: as §3

[22] = system: C. freundii DSM-30039; assay: MIC, microbroth dilution susceptibility assay; assay type: cell-based; conditions: Citrobacter freundii, DSM30039; large panel, Table 2a
Summary of the method: as §3

[23] = system: S. epidermidis DSM-28765; assay: MIC, microbroth dilution susceptibility assay; assay type: cell-based; conditions: Staphylococcus epidermidis, DSM28765; large panel, Table 2a
Summary of the method: as §3

[24] = system: S. aureus ATCC-29213; assay: MIC, microbroth dilution susceptibility assay; assay type: cell-based; conditions: Staphylococcus aureus, ATCC29213; large panel, Table 2a
Summary of the method: as §3

[25] = system: S. aureus Newman; assay: MIC, microbroth dilution susceptibility assay; assay type: cell-based; conditions: Staphylococcus aureus, NEWMAN; small panel, Tables 1a/1b; read-out: MIC S. aureus Newman
Summary of the method: as §3

[26] = system: P. aeruginosa DSM-24600; assay: MIC, microbroth dilution susceptibility assay; assay type: cell-based; conditions: Pseudomonas aeruginosa, DSM24600; large panel, Table 2a
Summary of the method: as §3

[27] = system: E. aerogenes DSM-30053; assay: MIC, microbroth dilution susceptibility assay; assay type: cell-based; conditions: Klebsiella aerogenes, DSM30053; large panel, Table 2a
Summary of the method: as §3

[28] = system: A. baumannii DSM-30008; assay: MIC, microbroth dilution susceptibility assay; assay type: cell-based; conditions: Acinetobacter baumannii, DSM30008; large panel, Table 2a
Summary of the method: as §3

[29] = system: P. aeruginosa DSM-46316; assay: MIC, microbroth dilution susceptibility assay; assay type: cell-based; conditions: Pseudomonas aeruginosa, DSM46316; large panel, Table 2a
Summary of the method: as §3

[30] = system: E. coli WT DSM-1116; assay: MIC, microbroth dilution susceptibility assay; assay type: cell-based; conditions: Escherichia coli, DSM1116; small panel, Tables 1a/1b; no visual growth after approx. 16 h; read-out: MIC E. coli WT DSM-1116
Summary of the method: as §3

[31] = system: P. aeruginosa WT PA14; assay: MIC, microbroth dilution susceptibility assay; assay type: cell-based; conditions: Pseudomonas aeruginosa, PA14, small panel, Tables 1a/1b; read-out: MIC P. aeruginosa WT PA14
Summary of the method: as §3

[32] = system: P. aeruginosa ΔmexAB; assay: microbe, parasite or virus in culture; assay type: cell-based; conditions: Pseudomonas aeruginosa, 16 h, read-out: MIC P. aeruginosa ΔmexAB, efflux-deficient strain; small panel, Tables 1a/1b
Summary of the method: as §3

[33] = system: E. coli ΔtolC; assay: microbe, parasite or virus in culture; assay type: cell-based; conditions: Escherichia coli, 16 h, read-out: MIC E. coli ΔtolC, small panel, Tables 1a/1b; no visual growth after approx. 16 h
Summary of the method: as §3

[34] = system: E. coli WT-III [marRΔ74bp]; assay type: cell-based; conditions: fluoroquinolone-resistant mutant; Table 2a
Experimental: as §1, §2

[35] = biological target: T1, E. coli gyrase (Escherichia coli, UniProt P0AES4+P0AES6); assay: E. coli gyrase supercoiling (sc) assay; assay type: biochemical; conditions: supercoiling assay kit, agarose gel quantification; read-out: Ec gyrase sc IC50
T1 construct: purchased Inspiralis
Experimental: The target activity on E. coli gyrase was assessed as described in Baumann et al., Angew Chem Int Ed Engl. 2014; 53(52):14605-9 using a commercial supercoiling (sc) assay kit from Inspiralis according to the manufacturer's instructions. The samples were separated on 0.8% (w/v) agarose gels and relaxed and supercoiled plasmid was visualized by ethidium bromide staining. Half-inhibitory concentrations (IC50) were calculated after image analysis and quantification (ImageJ) based on sigmoidal curve fitting (OriginPro).

SMILES	MIC [1] [µg/mL]	MIC [2] [µg/mL]	MIC [3] [µg/mL]	MIC [4] [µg/mL]	MIC [5] [µg/mL]	MIC [6] [µg/mL]	MIC [7] [µg/mL]	MIC [8] [µg/mL]	MIC [9] [µg/mL]	MIC [10] [µg/mL]	MIC [11] [µg/mL]	MIC [12] [µg/mL]	MIC ([13]; larger panel, Table 2b) [µg/mL]	MIC [25] [µg/mL]	MIC [30] [µg/mL]	MIC [31] [µg/mL]	MIC [32] [µg/mL]	MIC [33] [µg/mL]	MIC [14] [µg/mL]	other results
COc1c(NC(=O)c2ccc(NC(=O)c3ccc(NC(=O)[C@H](CC#N)NC(=O)c4ccc(NC(=O)/C(C)=C/c5ccc(O)cc5)cc4)cc3)c(OC)c2O)ccc(C(=O)O)c1O [Alb, Albicidin, reference compound]																				MIC A. baumannii [1]: >64 µg/mL; MIC C. freundii [2]: <0.03 µg/mL; MIC S. epidermidis [3]: 0.5 µg/mL (≈ 0.593 µM); MIC E. aerogenes [4]: >64 µg/mL; MIC E. cloacae [5]: >64 µg/mL; MIC P. mirabilis [6]: >64 µg/mL; MIC P. vulgaris [7]: <0.03 µg/mL; MIC P. aeruginosa ESBL 2 ([8]; larger panel): 16 µg/mL (≈ 19 µM); MIC K. pneumoniae [9]: >64 µg/mL; MIC S. marcescens [10]: >64 µg/mL; MIC P. aeruginosa ESBL 1 ([11]; larger panel): 16 µg/mL (≈ 19 µM); MIC E. faecalis [12]: 4 µg/mL (≈ 4.75 µM); MIC E. coli WT ([13]; larger panel, Table 2b): 0.06 µg/mL (≈ 0.0712 µM); MIC E. coli WT-3 [gyrA(S83L, D87G)] ([14]; larger panel, Table 2b): 0.06 µg/mL (≈ 0.0712 µM)
CC(C)Oc1c(NC(=O)c2ccc(NC(=O)[C@H](CC(N)=O)NC(=O)c3ccc(NC(=O)c4ccc(C#N)cc4)cc3)cc2)ccc(C(=O)Nc2ccc(C(=O)O)cc2)c1O [Compound 44, (S)-4-(4-(4-(4-amino-2-(4-(4-cyanobenzamido)benzamido)-4-oxobutanamido)benzamido)-2-hydroxy-3-isopropoxybenzamido)benzoic acid]	1 (≈ 1.23 µM)	< 0.03	< 0.03	0.06 (≈ 0.0739 µM)	0.25 (≈ 0.308 µM)	> 64	0.25 (≈ 0.308 µM)	4 (≈ 4.93 µM)	0.5 (≈ 0.616 µM)	> 64	4 (≈ 4.93 µM)	0.5 (≈ 0.616 µM)	0.25 (≈ 0.308 µM)	0.25 (≈ 0.308 µM)	0.5 (≈ 0.616 µM)	2 (≈ 2.46 µM)	0.25 (≈ 0.308 µM)	0.06 (≈ 0.0739 µM)	0.13 (≈ 0.16 µM)	MIC ([13]; large panel, Table 2a): 0.25 µg/mL (≈ 0.308 µM); MIC [15]: > 64 µg/mL; MIC [16]: 0.13 µg/mL (≈ 0.16 µM); MIC [17]: 0.5 µg/mL (≈ 0.616 µM); MIC [18]: 0.25 µg/mL (≈ 0.308 µM); MIC [19]: 64 µg/mL (≈ 78.8 µM); MIC [20]: 0.25 µg/mL (≈ 0.308 µM); MIC [21]: 0.5 µg/mL (≈ 0.616 µM); MIC [22]: < 0.03 µg/mL; MIC [23]: 0.06 µg/mL (≈ 0.0739 µM); MIC [24]: 0.5 µg/mL (≈ 0.616 µM); MIC [26]: > 64 µg/mL; MIC [27]: 1 µg/mL (≈ 1.23 µM); MIC [28]: 1 µg/mL (≈ 1.23 µM); MIC [29]: 2 µg/mL (≈ 2.46 µM); MIC E. coli WT-III [marRΔ74bp] [34]: 0.25 µg/mL (≈ 0.308 µM)
CO[C@@H](C(N)=O)[C@H](NC(=O)c1ccc(NC(=O)c2ccc(C#N)cc2)cc1)C(=O)Nc1ccc(C(=O)Nc2ccc(C(=O)Nc3ccc(C(=O)O)cc3)c(O)c2OC(C)C)cc1 [Compound 109, 4-(4-(4-((2S,3R)-4-amino-2-(4-(4-cyanobenzamido)benzamido)-3-methoxy-4-oxobutanamido)benzamido)-2-hydroxy-3-isopropoxybenzamido)benzoic acid]	1 (≈ 1.19 µM)	< 0.03	< 0.03	2 (≈ 2.38 µM)	> 64	4 (≈ 4.75 µM)	0.125 (≈ 0.148 µM)	1 (≈ 1.19 µM)	8 (≈ 9.5 µM)	> 64	2 (≈ 2.38 µM)	0.125 (≈ 0.148 µM)	2 (≈ 2.38 µM)	< 0.03	< 0.03	0.5 (≈ 0.594 µM)	< 0.03	< 0.03	0.25 (≈ 0.297 µM)	IC50 [35]: 400 nM

— patent US11034648B2, “Cystobactamide derivatives” (priority 2017, dated 2021)
